In patent publication US20040091949A1, “Method of screening drug acting on cell wall” (priority 2000, published 2004):

Legend:
[1] = tested on: AY-2 strain (wall-type arming yeast); test: GFP releasing effect of available antifungal agents, wall-type arming yeast; assay type: cell-based, S. cerevisiae; details: RPMIB medium protected for osmotic pressure, supernatant fluorescence, difference from control with no agent
Procedure: (§1) The cultured yeast cells in the logarithmic growth phase (AY-2 strain or AY-12 strain) were collected, and various agents were allowed to act on the yeast cells. Fluorescence intensity of the culture supernatant was measured by using Cytofluor 2300 Fluorometer (Millipore, excitation=480 nm, emission=530 nm). The fluorescence intensity under treatment with each of various agents was shown in terms of a difference in fluorescence intensity compared with that of a control in which no agent was added.
(§2) In order to ascertain whether or not the method of the present invention can be utilized for a screening of agents with a targeting site other than Kre6p, the GFP releasing effects in the AY-2 strain (wall-type arming yeast) and the AY-12 strain (membrane-type arming yeast) were compared under actions of available antifungal agents. The AY-2 strain cells and the AY-12 strain cells each cultured in a test tube were floated on a medium (RPMIB) protected for osmotic pressure, and each of the agents was allowed to act on the cells. After the culture, the fluorescence intensity of the supernatant was measured, and a difference from that of a control with no addition of the agent was calculated.

[2] = tested on: AY-12 strain (membrane-type arming yeast); test: GFP releasing effect of available antifungal agents, membrane-type arming yeast; assay type: cell-based, S. cerevisiae; details: RPMIB medium protected for osmotic pressure, supernatant fluorescence, difference from control with no agent
Procedure: as §1, §2

Molecule	GFP releasing effect [1]	GFP releasing effect [2]
Aculeacin A	Marked GFP releasing effect	almost no releasing effect
OC(Cn1cncn1)(Cn1cncn1)c1ccc(F)cc1F [Fluconazole]	Slight releasing effect	Slight releasing effect
Tunicamycin	Marked GFP releasing effect	almost no releasing effect
CC[C@@H](C(=O)[C@@H](C)[C@@H](O)[C@H](C)[C@@H]1O[C@@H]([C@@H](CC)C(=O)O)CC[C@@H]1C)[C@H]1O[C@]2(C=C[C@@H](O)[C@]3(CC[C@@](C)([C@H]4CC[C@](O)(CC)[C@H](C)O4)O3)O2)[C@H](C)C[C@@H]1C [Salinomycin]	Slight releasing effect	Slight releasing effect
C[C@@H]1[C@H](O)[C@@H](C)/C=C/C=C/C=C/C=C/C=C/C=C/C=C/[C@H](O[C@@H]2O[C@H](C)[C@@H](O)[C@H](N)[C@@H]2O)C[C@@H]2O[C@](O)(C[C@@H](O)C[C@@H](O)[C@H](O)CC[C@@H](O)C[C@@H](O)CC(=O)O[C@H]1C)C[C@H](O)[C@H]2C(=O)O [Amphotericin B]	Slight releasing effect	Slight releasing effect
